Calls of active or inactive are those of the source. No cut-off for these calls is given here.
How the values were obtained:
[1] = system: Echinochloa crus-galli; experiment: Herbicidal activity against Echinochloa crus-galli (barnyard grass) using youngest fully expanded leaf assessed as inhibition of CO2 assimilation at 40 uM at 25 to 28 degC measured after 1 hr; type: functional
[2] = system: Echinochloa crus-galli; experiment: Herbicidal activity against Echinochloa crus-galli (barnyard grass) using youngest fully expanded leaf assessed as inhibition of stomatal conductance at 40 uM at 25 to 28 degC measured after 1 hr; type: functional
[3] = system: Echinochloa crus-galli; experiment: Herbicidal activity against Echinochloa crus-galli (barnyard grass) using youngest fully expanded leaf assessed as inhibition of CO2 assimilation at 40 uM at 25 to 28 degC measured after 24 hr; type: functional
[4] = system: Phaseolus vulgaris; experiment: Herbicidal activity against Phaseolus vulgaris using youngest fully expanded leaf assessed as inhibition of CO2 assimilation at 40 uM at 25 to 28 degC measured after 120 hr; type: functional, organism-based
[5] = system: Echinochloa crus-galli; experiment: Herbicidal activity against Echinochloa crus-galli (barnyard grass) using youngest fully expanded leaf assessed as inhibition of stomatal conductance at 40 uM at 25 to 28 degC measured after 20 hr; type: functional
[6] = system: Phaseolus vulgaris; experiment: Herbicidal activity against Phaseolus vulgaris using youngest fully expanded leaf assessed as inhibition of stomatal conductance at 40 uM at 25 to 28 degC measured after 120 hr; type: functional, organism-based
[7] = molecular target: T1, Photosystem I iron-sulfur center (Panicum virgatum) (UniProt G3EFH9); experiment: Inhibition of PSI in Echinochloa crus-galli (barnyard grass) assessed as 50% compound concentration required to accept electrons
T1 sequence (whole entry): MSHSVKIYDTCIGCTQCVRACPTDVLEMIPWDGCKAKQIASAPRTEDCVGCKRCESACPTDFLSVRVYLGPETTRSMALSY

[8] = system: Echinochloa crus-galli; experiment: Herbicidal activity against Echinochloa crus-galli (barnyard grass) assessed as electrolyte leakage at 40 uM measured after 5 days treatment (reference value: 100%); type: functional
[9] = system: Echinochloa crus-galli; experiment: Herbicidal activity against Echinochloa crus-galli (barnyard grass) assessed as chlorophyll loss at 40 uM measured after 5 days treatment (reference value: 0%); type: functional
[10] = system: Echinochloa crus-galli; experiment: Herbicidal activity against Echinochloa crus-galli (barnyard grass) using youngest fully expanded leaf assessed as inhibition of CO2 assimilation at 40 uM at 25 to 28 degC measured after 5 days; type: functional, organism-based
[11] = system: Zea mays; experiment: Herbicidal activity against Zea mays (maize) using youngest fully expanded leaf assessed as intracellular CO2 concentration at 40 uM at 25 to 28 degC measured after 120 hr (reference value: 196.1 +/- 4.9 uL/L); type: functional
[12] = system: Physalis ixocarpa; experiment: Herbicidal activity against Physalis ixocarpa assessed as reduction in dry biomass at 40 uM measured after 14 days treatment; type: functional, organism-based
[13] = system: Echinochloa crus-galli; experiment: Herbicidal activity against Echinochloa crus-galli (barnyard grass) using youngest fully expanded leaf assessed as stomatal conductance at 40 uM at 25 to 28 degC measured after 120 hr (reference value: 100.7 +/- 8.6 mmol/m'2/s); type: functional
[14] = system: Physalis ixocarpa; experiment: Herbicidal activity against Physalis ixocarpa using youngest fully expanded leaf assessed as inhibition of CO2 assimilation at 40 uM at 25 to 28 degC measured after 120 hr (reference value: 6.3 +/- 0.6 umol/m'2/s); type: functional
[15] = system: Phaseolus vulgaris; experiment: Herbicidal activity against Phaseolus vulgaris using youngest fully expanded leaf assessed as inhibition of CO2 assimilation at 40 uM at 25 to 28 degC measured after 120 hr (reference value: 7.2 +/- 0.3 umol/m'2/s); type: functional
[16] = system: Physalis ixocarpa; experiment: Herbicidal activity against Physalis ixocarpa using youngest fully expanded leaf assessed as stomatal conductance at 40 uM at 25 to 28 degC measured after 120 hr (reference value: 184.6 +/- 36.6 mmol/m'2/s); type: functional
[17] = system: Physalis ixocarpa; experiment: Herbicidal activity against Physalis ixocarpa using youngest fully expanded leaf assessed as intracellular CO2 concentration at 40 uM at 25 to 28 degC measured after 120 hr (reference value: 254.0 +/- 8.6 uL/L); type: functional
[18] = system: Echinochloa crus-galli; experiment: Herbicidal activity against Echinochloa crus-galli (barnyard grass) using youngest fully expanded leaf assessed as inhibition of CO2 assimilation at 40 uM at 25 to 28 degC measured after 120 hr (reference value: 10.7 +/- 1.1 umol/m'2/s); type: functional
[19] = system: Zea mays; experiment: Herbicidal activity against Zea mays (maize) using youngest fully expanded leaf assessed as inhibition of CO2 assimilation at 40 uM at 25 to 28 degC measured after 120 hr (reference value: 8 +/- 0.4 umol/m'2/s); type: functional
[20] = system: Echinochloa crus-galli; experiment: Herbicidal activity against Echinochloa crus-galli (barnyard grass) assessed as reduction in dry biomass at 40 uM measured after 14 days treatment; type: functional; conditions: 336 h
[21] = molecular target: T1, Photosystem I iron-sulfur center (Panicum virgatum); experiment: Inhibition of PSI in Echinochloa crus-galli (barnyard grass) using dark-adapted leaf assessed as photosynthetic electron transport at 40 uM measured after 1 hr by chlorophyll fluorescence induction curve assay
[22] = system: Echinochloa crus-galli; experiment: Herbicidal activity against Echinochloa crus-galli (barnyard grass) using youngest fully expanded leaf assessed as inhibition of stomatal conductance at 40 uM at 25 to 28 degC measured after 120 hr; type: functional, organism-based
[23] = molecular target: Photosystem II reaction center protein M (Pennisetum americanum) (UniProt Q672I5); experiment: Inhibition of PSII in Echinochloa crus-galli (barnyard grass) using leaf assessed as inhibition of electron transport at 40 uM measured after 7 to 14 days
[24] = system: Zea mays; experiment: Induction of chlorophyll a fluorescence curve in Zea mays (maize) leaf relative to control; type: functional, organism-based
[25] = system: Solanum lycopersicum; experiment: Induction of chlorophyll a fluorescence curve in green Solanum lycopersicum (tomato) leaf relative to control; type: functional, organism-based
[26] = system: Zea mays; experiment: Herbicidal activity against Zea mays (maize) assessed as reduction in dry biomass at 40 uM measured after 14 days treatment; type: functional; conditions: 336 h
[27] = system: Phaseolus vulgaris; experiment: Herbicidal activity against Phaseolus vulgaris assessed as reduction in dry biomass at 40 uM measured after 14 days treatment; type: functional, organism-based
[28] = system: Echinochloa crus-galli; experiment: Herbicidal activity against Echinochloa crus-galli (barnyard grass) using youngest fully expanded leaf assessed as intracellular CO2 concentration at 40 uM at 25 to 28 degC measured after 120 hr (reference value: 171.0 +/- 23.1 uL/L); type: functional
[29] = system: Phaseolus vulgaris; experiment: Herbicidal activity against Phaseolus vulgaris using youngest fully expanded leaf assessed as stomatal conductance at 40 uM at 25 to 28 degC measured after 120 hr (reference value: 161.8 +/- 10 mmol/m'2/s); type: functional
[30] = molecular target: Photosystem II reaction center protein M (Pennisetum americanum) (UniProt Q672I5); experiment: Inhibition of PSII in Echinochloa crus-galli (barnyard grass) using dark-adapted leaf assessed as photosynthetic electron transport at 40 uM measured after 1 hr by chlorophyll fluorescence induction curve assay
[31] = system: Phaseolus vulgaris; experiment: Herbicidal activity against Phaseolus vulgaris using youngest fully expanded leaf assessed as intracellular CO2 concentration at 40 uM at 25 to 28 degC measured after 120 hr (reference value: 256.0 +/- 5.8 uL/L); type: functional
[32] = system: Fabaceae; experiment: Induction of chlorophyll a fluorescence curve in Fabaceae (bean) leaf relative to control; type: functional, organism-based
[33] = system: Zea mays; experiment: Herbicidal activity against Zea mays (maize) using youngest fully expanded leaf assessed as stomatal conductance at 40 uM at 25 to 28 degC measured after 120 hr (reference value: 103.9 +/- 6.5 mmol/m'2/s); type: functional

C[C@H](NC1=CC(=O)C(N[C@@H](C)[C@H](O)c2ccccc2)=CC1=O)[C@H](O)c1ccccc1
inhibition at 40 µM [1]: 80%
inhibition at 40 µM [2]: 45%
inhibition at 40 µM [3]: 84%
inhibition [4]: inactive
inhibition at 40 µM [5]: 62%
inhibition [6]: inactive

C[n+]1ccc(-c2cc[n+](C)cc2)cc1 [PARAQUAT]
Activity [7]: 110 µM
Activity [8]: 438.59%
Activity [9]: 44.3%

CC(NC1=CC(=O)C(NC(C)c2ccccc2)=CC1=O)c1ccccc1 (configuration not stated)
inhibition at 40 µM [1]: 80%
inhibition at 40 µM [2]: 45%
inhibition at 40 µM [3]: 84%
inhibition [4]: inactive
inhibition at 40 µM [5]: 62%
inhibition [6]: inactive

O=C1C=C(Nc2ccccc2)C(=O)C=C1Nc1ccccc1
inhibition at 40 µM [1]: 80%
inhibition at 40 µM [2]: 45%
inhibition at 40 µM [3]: 84%
inhibition [4]: inactive
inhibition at 40 µM [5]: 62%
inhibition [6]: inactive
inhibition [10]: Active

O=C1C=C(Nc2ccccc2O)C(=O)C=C1Nc1ccccc1O
inhibition at 40 µM [1]: 80%
inhibition at 40 µM [2]: 45%
inhibition at 40 µM [3]: 84%
inhibition [4]: inactive
inhibition at 40 µM [5]: 62%
inhibition [6]: inactive
inhibition [10]: Active

O=C1C=C(NCc2ccccc2)C(=O)C=C1NCc1ccccc1
inhibition at 40 µM [1]: 80%
Activity [11]: 212 uL/L
inhibition [12]: inactive
Activity [7]: 0.23 µM
Activity [13]: 75.3 mmol/m2/s
inhibition at 40 µM [2]: 45%
Activity [8]: 135.6%
Activity [9]: 3.5%
Activity [14]: 5.6 micromol/m2/s
Activity [15]: 7 micromol/m2/s
Activity [16]: 151.2 mmol/m2/s
Activity [17]: 254.3 uL/L
Activity [18]: 4.2 micromol/m2/s
Activity [19]: 7.2 micromol/m2/s
inhibition at 40 µM [20]: 76.5%
inhibition at 40 µM [3]: 84%
inhibition [21]: Active
inhibition [22]: Active
inhibition [4]: inactive
inhibition [23]: 44%
inhibition at 40 µM [5]: 62%
Activity [24]: inactive
Activity [25]: inactive
inhibition [6]: inactive
inhibition at 40 µM [26]: 60%
inhibition [27]: inactive
Activity [28]: 221 uL/L
Activity [29]: 150 mmol/m2/s
inhibition [30]: inactive
Activity [31]: 254 uL/L
Activity [32]: inactive
Activity [33]: 82.4 mmol/m2/s

COc1ccccc1NC1=CC(=O)C(Nc2ccccc2OC)=CC1=O
inhibition at 40 µM [1]: 80%
inhibition at 40 µM [2]: 45%
inhibition at 40 µM [3]: 84%
inhibition [4]: inactive
inhibition at 40 µM [5]: 62%
inhibition [6]: inactive

— ChEMBL document CHEMBL3045374, “Selective herbicide activity of 2,5-di(benzylamine)-p-benzoquinone against the monocot weed Echinochloa crusgalli. An in vivo analysis of photosynthesis and growth” (2005)
